How the values were obtained:
Rattus norvegicus = species on record: Rattus norvegicus; experiment: Inhibition of rat intestinal alpha-glucosidase at 100 uM
[1] = Inhibition of rat intestinal alpha-glucosidase

Row | SMILES | inhibition (Rattus norvegicus) | IC50 [1] | Ki [1]
1 | CCOC(=O)[C@H]1[C@H]([C@@H]2O[C@@H]3OC(C)(C)O[C@@H]3[C@H]2OCc2ccccc2)[C@@H](C(=O)OCC)N[C@H]1c1cccc([N+](=O)[O-])c1 | 82.7% | 61 µM | 33 µM
2 | C[C@H]1O[C@H](O[C@H]2[C@H](O)[C@@H](O)[C@@H](O[C@H]3[C@H](O)[C@@H](O)C(O)O[C@@H]3CO)O[C@@H]2CO)[C@H](O)[C@@H](O)[C@@H]1N[C@H]1C=C(CO)[C@@H](O)[C@H](O)[C@H]1O (stereo partly drawn) | 39% | – | –
3 | CCOC(=O)[C@H]1[C@H](C2O[C@@H]3OC(C)(C)O[C@@H]3[C@H]2OCc2ccccc2)[C@@H](C(=O)OCC)N[C@H]1c1cccc(Cl)c1 (single isomer, unassigned) | 65.5% | 96 µM | 79 µM
4 | CCOC(=O)[C@H]1[C@H](C2O[C@@H]3OC(C)(C)O[C@@H]3[C@H]2OCc2ccccc2)[C@@H](C(=O)OCC)N[C@H]1c1ccc(Br)cc1 (single isomer, unassigned) | 79.3% | 64 µM | 36 µM
5 | CCOC(=O)[C@H]1[C@H](C2O[C@@H]3OC(C)(C)O[C@@H]3[C@H]2OCc2ccccc2)[C@@H](C(=O)OCC)N[C@H]1c1ccc(F)cc1 (single isomer, unassigned) | 43.1% | 75 µM | 40 µM
6 | CCOC(=O)[C@H]1[C@H](C2O[C@@H]3OC(C)(C)O[C@@H]3[C@H]2OCc2ccccc2)[C@@H](C(=O)O)N[C@H]1c1cc(Cl)ccc1Cl (single isomer, unassigned) | 10.5% | – | –
7 | CCOC(=O)[C@H]1[C@H](C2O[C@@H]3OC(C)(C)O[C@@H]3[C@H]2OCc2ccccc2)[C@@H](C(=O)O)N[C@H]1c1cccc(Cl)c1 (single isomer, unassigned) | 24.1% | – | –
8 | CCOC(=O)[C@H]1[C@H](C2O[C@@H]3OC(C)(C)O[C@@H]3[C@H]2OCc2ccccc2)[C@@H](C(=O)O)N[C@H]1c1cccnc1 (single isomer, unassigned) | 5.1% | – | –

More lines, now with the values ahead:

Row | inhibition (Rattus norvegicus) | IC50 [1] | Ki [1] | SMILES
9 | 67.2% | 99 µM | 65 µM | CCOC(=O)[C@H]1[C@H](C2O[C@@H]3OC(C)(C)O[C@@H]3[C@H]2OCc2ccccc2)[C@@H](C(=O)OCC)N[C@H]1c1cc(Cl)ccc1Cl (single isomer, unassigned)
10 | 26.8% | – | – | CCOC(=O)[C@H]1[C@H](C2O[C@@H]3OC(C)(C)O[C@@H]3[C@H]2OC)[C@@H](C(=O)OCC)N[C@H]1c1ccc(Br)cc1 (single isomer, unassigned)
11 | 8.1% | – | – | CCOC(=O)[C@H]1[C@H](C2O[C@@H]3OC(C)(C)O[C@@H]3[C@H]2OCc2ccccc2)[C@@H](C(=O)O)N[C@H]1c1ccc(Br)cc1 (single isomer, unassigned)
12 | 10.3% | – | – | CCOC(=O)[C@H]1[C@H](C2O[C@@H]3OC(C)(C)O[C@@H]3[C@H]2OCc2ccccc2)[C@@H](C(=O)O)N[C@H]1c1cccc([N+](=O)[O-])c1 (single isomer, unassigned)
13 | 29.3% | – | – | CCOC(=O)[C@H]1[C@H](C2O[C@@H]3OC(C)(C)O[C@@H]3[C@H]2OCc2ccccc2)[C@@H](C(=O)OCC)N[C@H]1c1cccnc1 (single isomer, unassigned)
